This is an account of results in patent US8524759B2, “Phenylbutazone carrier formulation showing increased bioactivity in animals” (priority 2009, dated 2013).

Series [1] can be described thus: Bioequivalence test: blood plasma phenylbutazone levels (HPLC) after horses eat the product mixed in grain. More on the design: unit not given here. The note with it: 4 g phenylbutazone in grain, oral, average of five horses. It counts as in vivo, horse. The method, then: The above product mixture was tested for bioequivalency as follows. Three healthy mature geldings and two non-pregnant mares aged 3-15 years with similar weights were chosen for a bioequivalence test. The bioequivalence test was designed to determine the difference in blood plasma absorption between commercially available phenylbutazone tablets and the inventive product mixture described above. […] At five o'clock p.m. the evening before the test, each horse was fed a normal meal consisting of 1 gallon of grain with fourteen percent protein, and ten pounds of alfalfa hay. During the test each horse was stabled separately and had access to drinking water at all times. On test day, each horse was fasted until administration of the test product, and then given a normal meal consisting of one gallon of grain with fourteen percent protein and ten pounds of alfalfa hay five hours post dosing and at twelve and one-half hours after administration. The morning of the test, 4.60 grams of the product from example one containing a total of four grams of phenylbutazone, was added to one half gallon of grain with fourteen percent protein by lightly stifling. Each horse was given 15 minutes to consume the grain. […] Each of the five horses followed this procedure. Two hours following administration a 4.5 cc blood sample was taken from each of the five horses. Thereafter, additional 4.5 cc blood samples were taken at half-hour intervals until the sixth hour. After the sixth hour 4.5 cc blood samples were taken hourly until the eighth hour. […] The blood samples were taken with a 20 gauge one inch needle and promptly put into a green CST Lithium Heparin tubes and cooled in ice water at 36 degrees F. When each sample was collected, the blood sample was spun to separate the blood plasma from each sample. The separated blood plasma was placed in a freezer for twenty-four hours at 20 below zero. After twenty-four hours, the blood plasma was thawed to room temperature and phenylbutazone levels were quantified for each sample by a validated HPLC method. Two weeks later after completing a wash out period, the same three healthy mature geldings and two non-pregnant mares aged 3-15 years with similar weights were used for a cross over bioequivalence test. This bioequivalence test was to determine the concentration levels in blood plasma absorption of commercially available phenylbutazone tablets. […] At five o'clock p.m. the evening before the test, each horse was fed a normal meal consisting of 1 gallon of grain with fourteen percent protein, and ten pounds of alfalfa hay. During the test each horse was stabled separately and had access to drinking water at all times. On test day, each horse was fasted until administration of the test product (4 grams of crushed active ingredient phenylbutazone in tablets), and then given a normal meal consisting of one gallon of grain with fourteen percent protein and ten pounds of alfalfa hay five hours post dosing, and at twelve and one-half hours after administration. The morning of the test, four 1 gram tablets of the commercially available phenylbutazone were crushed in to a fine powder, and were added to one half gallon of grain with fourteen percent protein by lightly stifling for each horse. Each horse was given 15 minutes to consume the grain. […] Each of the five horses followed this procedure. Two hours following administration a 4.5 cc blood sample was taken from each of the five horses. Thereafter, additional 4.5 cc blood samples were taken at half-hour intervals until the sixth hour. After the sixth hour 4.5 cc blood samples were taken hourly until the eighth hour. […] The blood samples were taken with a 20 gauge one inch needle and promptly put into a green CST Lithium Heparin tubes and cooled in ice water at 36 degrees F. When each sample was collected, the blood sample was spun to separate the blood plasma from each sample. The separated blood plasma was placed in a freezer for twenty-four hours at 20 below zero. […]

The conditions of series [2]: oral administration; cited from earlier work.

For the compound `CCCCC1C(=O)N(c2ccccc2)N(c2ccccc2)C1=O` [Pure Phenylbutazone, 4-butyl-diphenyl-3,5-pyrazoidinedione], the “blood plasma concentration of phenylbutazone” value in series [1] (2 hours after eating) came to 5.0; in series [1] (3 hours after eating) it was 6.0; in series [1] (4 hours after eating), 8.5; in series [1] (5 hours after eating) it was 10.1; in series [1] (6 hours after eating), 12.0; in series [1] (7 hours after eating) it was 13.0. The “blood plasma concentration of phenylbutazone” value was found to be 12.14 in series [1] (8 hours after eating), 9.9 in series [1] (10 hours after eating), 7.3 in series [1] (12 hours after eating) and 4.18 in series [1] (18 hours after eating). For the same compound, the “time required to achieve an effective concentration level” value in series [2] was 3 to 5 h.
